Measurements taken from patent publication US10821115B2, “Compounds that inhibit Mcl-1 protein” (priority 2017, dated 2020).
Like-named read-outs stand apart in the source and are kept apart here.

What was measured:
[1] = target: recombinant human Mcl-1 (residues 171-327) / Bim interaction (Homo sapiens (Human), UniProt Q07820); experiment: biochemical; type: binding; details: read-out: Mcl-1 HTRF IC50
[2] = system: human multiple myeloma cell line, OPM-2; experiment: Cell viability assay (OPM-2 10 FBS), CellTiter-Glo; type: cell-based; details: Homo sapiens, OPM-2, 16 h
Outline: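 Steps: plate cells at 3000/well in 10% FBS growth medium, add serially diluted compound, incubate 16 h at 37 °C with 5% CO2, add detection reagent and read luminescence after 25 min. A 4-parameter logistic model gives IC50.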

[3] = 0.1 nM Mcl-1(171-327), 0.05 nM biotin-Bim (51-76)
[4] = read-out: OPM-2 10% FBS IC50 IP, OPM-2 cells, 10% FBS, 16 h incubation
[5] = TR-FRET, Mcl-1(171-327) / biotin-Bim (51-76)
[6] = read-out: OPM-2 10% FBS IC50 IP, OPM-2 cells, 10% FBS, 16 h, CellTiter-Glo

recombinant human Mcl-1 (residues 171-327) / Bim interaction, sequence (Q07820 171-327): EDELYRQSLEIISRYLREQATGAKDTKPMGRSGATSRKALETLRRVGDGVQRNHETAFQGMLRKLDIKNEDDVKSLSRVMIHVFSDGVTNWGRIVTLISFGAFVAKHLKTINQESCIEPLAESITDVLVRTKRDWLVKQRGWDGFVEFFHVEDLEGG

| Compound | IC50 [1, 3] | IC50 [2, 4] | IC50 [1, 5] | IC50 [2, 6] |
| --- | --- | --- | --- | --- |
| CO[C@@]1(CN2CCN(c3ccc(B(O)O)c(C(C)=O)c3)CC2)/C=C/C[C@H](C)[C@@H](C)S(=O)(=O)NC(=O)c2ccc3c(c2)N(C[C@@H]2CC[C@H]21)C[C@@]1(CCCc2cc(Cl)ccc21)CO3 [Example 296, (2-acetyl-4-(4-(((1S,3′R,6′R,7′S,8′E,11′S, 12′R)-6-chloro-7′-methoxy-11′,12′-dimethyl-13′,13′-dioxido-15′-oxo-3,4-dihydro-2H-spiro[naphthalene-1,22′-[20]oxa[13]thia[1,14]diazatetracyclo [14.7.2.0~3,6~.0~19,24~]pentacosa[8,16,18,24]tetraen]-7′-yl)methyl)-1-piperazinyl)phenyl)boronic acid] | 0.211 nM | 1310 nM | – | – |
| CCOC(=O)C(F)(F)[C@]1(O)/C=C/C[C@H](C)[C@@H](C)S(=O)(=O)NC(=O)c2ccc3c(c2)N(C[C@@H]2CC[C@H]21)C[C@@]1(CCCc2cc(Cl)ccc21)CO3 [Example 100416, ethyl ((1S,3′R,6′R,7′S,8′E,11′S,12′R)-6-chloro-7′-hydroxy-11′,12′-dimethyl-13′,13′-dioxido-15′-oxo-3,4-dihydro-2H-spiro[naphthalene-1,22′-[20]oxa[13]thia[1,14]diazatetracyclo [14.7.2.0~3,6~.0~19,24~]pentacosa[8,16,18,24]tetraen]-7′-yl)(difluoro)acetate] | – | – | 0.092 nM | 86 nM |
| CO[C@]1(CN2CCOCC2)/C=C/C[C@H](C)[C@@H](C)S(=O)(=O)NC(=O)c2ccc3c(c2)N(C[C@@H]2CC[C@H]21)C[C@@]1(CCCc2cc(Cl)ccc21)CO3 [Example 53, (1S,3′R,6′R,7′R,8′E,11′S,12′R)-6-chloro-7′-methoxy-11′,12′-dimethyl-7′-(4-morpholinylmethyl)-3,4-dihydro-2H,15′H-spiro[naphthalene-1,22′-[20]oxa[13]thia[1,14]diazatetracyclo [14.7.2.0~3,6~.0~19,24~]pentacosa[8,16,18,24]tetraen]-15′-one 13′,13′-dioxide] | 0.336 nM | 290 nM | – | – |
| CO[C@]1(CCN(C)C)/C=C/C[C@H](C)[C@@H](C)S(=O)(=O)NC(=O)c2ccc3c(c2)N(C[C@@H]2CC[C@H]21)C[C@@]1(CCCc2cc(Cl)ccc21)CO3 [Example 100381, (1S,3′R,6′R,7′R,8′E,11′S,12′R)-6-chloro-7′-(2-(dimethylamino)ethyl)-7′-methoxy-11′,12′-dimethyl-3,4-dihydro-2H,15′H-spiro[naphthalene-1,22′-[20]oxa[13]thia[1,14]diazatetracyclo [14.7.2.0~3,6~.0~19,24~]pentacosa[8,16,18,24]tetraen]-15′-one 13′,13′-dioxide] | – | – | 0.328 nM | 2910 nM |
| CO[C@]1(CN2CCN3CCCC[C@@H]3C2)/C=C/[C@H](C)[C@H](C)CS(=O)(=O)NC(=O)c2ccc3c(c2)N(C[C@@H]2CC[C@H]21)C[C@@]1(CCCc2cc(Cl)ccc21)CO3 [Example 161, (1S,3′R,6′R,7′R,8′E,10′S,11′S)-6-chloro-7′-methoxy-10′,11′-dimethyl-7′-((9aR)-octahydro-2H-pyrido[1,2-a]pyrazin-2-ylmethyl)-3,4-dihydro-2H,15′H-spiro[naphthalene-1,22′-[20]oxa[13]thia[1,14]diazatetracyclo [14.7.2.0~3,6~.0~19,24~]pentacosa[8,16,18,24]tetraen]-15′-one 13′,13′-dioxide] | 0.094 nM | 113 nM | – | – |
| CO[C@@]1(C#CCCN2CCOC[C@@H]2C)/C=C/C[C@H](C)[C@@H](C)S(=O)(=O)NC(=O)c2ccc3c(c2)N(C[C@@H]2CC[C@H]21)C[C@@]1(CCCc2cc(Cl)ccc21)CO3 [Example 100506, (1S,3′R,6′R,7′S,8′E,11′S,12′R)-6-chloro-7′-methoxy-11′,12′-dimethyl-7′-(4-((3S)-3-methyl-4-morpholinyl)-1-butyn-1-yl)-3,4-dihydro-2H,15′H-spiro[naphthalene-1,22′-[20]oxa[13]thia[1,14]diazatetracyclo [14.7.2.0~3,6~.0~19,24~]pentacosa[8,16,18,24]tetraen]-15′-one 13′,13′-dioxide] | – | – | 0.497 nM | 1270 nM |
| CC[C@@H]1CC/C=C/[C@](CN2CCN3CCCC[C@@H]3C2)(OC)[C@@H]2CC[C@H]2CN2C[C@@]3(CCCc4cc(Cl)ccc43)COc3ccc(cc32)C(=O)NS1(=O)=O [Example 29, (1S,3′R,6′R,7′S,8′E,12′R)-6-chloro-12′-ethyl-7′-methoxy-7′-((9aR)-octahydro-2H-pyrido[1,2-a]pyrazin-2-ylmethyl)-3,4-dihydro-2H,15′H-spiro[naphthalene-1,22′-[20]oxa[13]thia[1,14]diazatetracyclo [14.7.2.0~3,6~.0~19,24~]pentacosa[8,16,18,24]tetraen]-15′-one 13′,13′-dioxide] | 0.249 nM | 186 nM | – | – |
| CO[C@@]1(c2cccnc2)/C=C/C[C@H](C)[C@@H](C)S(=O)(=O)NC(=O)c2ccc3c(c2)N(C[C@@H]2CC[C@H]21)C[C@@]1(CCCc2cc(Cl)ccc21)CO3 [Example 100391, (1S,3′R,6′R,7′S,8′E,11′S,12′R)-6-chloro-7′-methoxy-11′,12′-dimethyl-7′-(3-pyridinyl)-3,4-dihydro-2H,15′H-spiro[naphthalene-1,22′-[20]oxa[13]thia[1,14]diazatetracyclo [14.7.2.0~3,6~.0~19,24~]pentacosa[8,16,18,24]tetraen]-15′-one 13′,13′-dioxide] | – | – | 0.441 nM | 282 nM |
| CNC(=O)C[C@]1(O)CCC[C@H](C)[C@@H](C)S(=O)(=O)NC(=O)c2ccc3c(c2)N(C[C@@H]2CC[C@H]21)C[C@@]1(CCCc2cc(Cl)ccc21)CO3 [Example 100098, 2-((1S,3′R,6′R,7′R,11′S,12′R)-6-chloro-7′-hydroxy-11′,12′-dimethyl-13′,13′-dioxido-15′-oxo-3,4-dihydro-2H-spiro[naphthalene-1,22′-[20]oxa[13]thia[1,14]diazatetracyclo [14.7.2.0~3,6~.0~19,24~]pentacosa[16,18,24]trien]-7′-yl)-N-methylacetamide] | – | – | 0.231 nM | 748 nM |
| CO[C@]1(CN2CCN(C3CC3)CC2)/C=C/C[C@H](C)[C@@H](C)S(=O)(=O)NC(=O)c2ccc3c(c2)N(C[C@@H]2CC[C@H]21)C[C@@]1(CCCc2cc(Cl)ccc21)CO3 [Example 91, (1S,3′R,6′R,7′R,8′E,11′S,12′R)-6-chloro-7′-((4-cyclopropyl-1-piperazinyl)methyl)-7′-methoxy-11′,12′-dimethyl-3,4-dihydro-2H,15′H-spiro[naphthalene-1,22′-[20]oxa[13]thia[1,14]diazatetracyclo [14.7.2.0~3,6~.0~19,24~]pentacosa[8,16,18,24]tetraen]-15′-one 13′,13′-dioxide] | 0.203 nM | 559 nM | – | – |
| C[C@@H]1[C@@H](C)C/C=C/[C@@](CN2CCN3CCOC[C@@H]3C2)(OCC(F)(F)F)[C@@H]2CC[C@H]2CN2C[C@@]3(CCCc4cc(Cl)ccc43)COc3ccc(cc32)C(=O)NS1(=O)=O [Example 50, (1S,3′R,6′R,7′R,8′E,11′S,12′R)-6-chloro-7′-((9aS)-hexahydropyrazino[2,1-c][1,4]oxazin-8(1H)-ylmethyl)-11′,12′-dimethyl-7′-(2,2,2-trifluoroethoxy)-3,4-dihydro-2H,15′H-spiro[naphthalene-1,22′-[20]oxa[13]thia[1,14]diazatetracyclo [14.7.2.0~3,6~.0~19,24~]pentacosa[8,16,18,24]tetraen]-15′-one 13′,13′-dioxide] | 0.736 nM | 1530 nM | – | – |
| CO[C@]1(CN2CC3(C2)CS(=O)(=O)C3)/C=C/C[C@H](C)[C@@H](C)S(=O)(=O)NC(=O)c2ccc3c(c2)N(C[C@@H]2CC[C@H]21)C[C@@]1(CCCc2cc(Cl)ccc21)CO3 [Example 224, (1S,3′R,6′R,7′R,8′E,11′S,12′R)-6-chloro-7′-((2,2-dioxido-2-thia-6-azaspiro[3.3]hept-6-yl)methyl)-7′-methoxy-11′,12′-dimethyl-3,4-dihydro-2H,15′H-spiro[naphthalene-1,22′-[20]oxa[13]thia[1,14]diazatetracyclo [14.7.2.0~3,6~.0~19,24~]pentacosa[8,16,18,24]tetraen]-15′-one 13′,13′-dioxide] | 0.127 nM | 157 nM | – | – |
| C[C@@H]1[C@@H](C)C/C=C/[C@@](O)(c2ccccn2)[C@@H]2CC[C@H]2CN2C[C@@]3(CCCc4cc(Cl)ccc43)COc3ccc(cc32)C(=O)NS1(=O)=O (single isomer, unassigned) [Example 100181] | – | – | 0.537 nM | 226 nM |
| C[C@@H]1[C@@H](C)C/C=C/[C@@](O)(c2ccncc2F)[C@@H]2CC[C@H]2CN2C[C@@]3(CCCc4cc(Cl)ccc43)COc3ccc(cc32)C(=O)NS1(=O)=O (single isomer, unassigned) [Example 100370] | – | – | 0.153 nM | 258 nM |
| CC(C)[C@@]1(O)/C=C/C[C@H](C)[C@@H](C)S(=O)(=O)NC(=O)c2ccc3c(c2)N(C[C@@H]2CC[C@H]21)C[C@@]1(CCCc2cc(Cl)ccc21)CO3 [Example 100210, (1S,3′R,6′R,7′R,8′E,11′S,12′R)-6-chloro-7′-hydroxy-11′,12′-dimethyl-7′-(2-propanyl)-3,4-dihydro-2H,15′H-spiro[naphthalene-1,22′-[20]oxa[13]thia[1,14]diazatetracyclo [14.7.2.0~3,6~.0~19,24~]pentacosa[8,16,18,24]tetraen]-15′-one 13′,13′-dioxide] | – | – | 3.47 nM | 3360 nM |
| Cc1ccc([C@]2(O)/C=C/C[C@H](C)[C@@H](C)S(=O)(=O)NC(=O)c3ccc4c(c3)N(C[C@@H]3CC[C@H]32)C[C@@]2(CCCc3cc(Cl)ccc32)CO4)cn1 (single isomer, unassigned) [Example 100408] | – | – | 1.35 nM | 5620 nM |
